Source: patent US9243036B2, “Anti-microbial activity of synthetic peptides” (THE UNITED STATES OF AMERICA, as represented by the …, priority 2012, dated 2016)
In brackets after ≈: the same amount, converted by molar mass. Read-outs that look alike come from different tables or passages of the source. Residues, ends and D or L forms follow the SMILES beside them.

Tests used:
Type in all cases: cell-based
E. coli = tested on: E. coli
Experimental: (§1) In vitro anti-bacterial activity of EC5. The test microorganisms mentioned earlier in the experimental procedures were used to evaluate the bactericidal activity of EC5 peptide. The minimum inhibitory concentrations (MICs) of the peptide were determined by standard dilution assay as recommended by Clinical and Laboratory Standard Institutes (CLSI) guidelines (Azad, M. A., et al., (2011) Antimicrob. Agents Chemother. 55, 2137-2145). Bacteria were grown to mid-logarithmic phase in cation-supplemented Mueller-Hinton broth (MHB) (Becton Dickinson, Sparks, Md.) on an orbital shaker (37° C.) and diluted to a 0.5 McFarland standard to a final volume of 1 ml. Decreasing concentrations of the peptide were incubated with the microorganisms. Results were recorded by visual inspection after 24 h of incubation at 37° C. Assay was repeated three separate times to ensure reproducibility. […] EC5 concentrations 0x, 0.5x, 1x, and 2×MIC were incubated with logarithmic phase of bacteria of approximately 10^5 CFU/ml in an orbital shaker for 48 h at 37° C. Samples were drawn and plated on NA plates. Polymyxin B was used as a positive control and peptide with no anti-bacterial activity from our previous studies was used as a negative control.

K pneumoniae = tested on: K pneumoniae
Experimental: as §1

P. aeruginosa = tested on: P. aeruginosa
Experimental: as §1

S. aureus = test: Cytoplasmic membrane depolarization assay (diSC3-5); conditions: EC5 64 μg/ml; after 45 min
Experimental: Membrane depolarization activity (Δψ) of the peptide was determined with intact E. coli and P. aeruginosa cells and the membrane potential-sensitive fluorescent dye, 3,3′-dipropylthiadicarbocyanine Iodide (diSC (3)5) (Invitrogen, Oregon), according to described methods (Sims, P. J., et al (1974) Biochemistry 13, 3315-3330). Briefly, bacterial cells of mid-logarithmic phase were harvested by centrifugation and washed twice with HEPES buffer (5 mM HEPES, 5 mM glucose, pH 7.6). The cells were suspended in the same buffer to an OD of 0.05. The cell suspension was incubated with […] diSC (3)5 until maximal uptake of the dye. 100 mM KCl was added to equilibrate the cytoplasmic and external potassium ion concentration of peptide, and fluorescence was monitored at an excitation wavelength of 622 nm and an emission wavelength of 670 nm. […]
Cytoplasmic depolarization assay(Δψ) was performed using the membrane potential sensitive dye 3,3′-dipropylthiadicarbocyanine iodide (diSC3-5) (Zang, L. et al., (2001) J. Biol. Chem. 276, 35714-35722). This dye can cross the outer membrane of the bacterial cell and become concentrated in the cytoplasmic membrane and thereby it self-quenches its own fluorescence. Upon addition of a membrane-permeabilizing agent the dye is released with consequent increase in the fluorescence. […]

`CC[C@H](C)[C@H](NC(=O)[C@H](CCCCN)NC(=O)[C@H](CCCNC(=N)N)NC(=O)[C@H](Cc1ccccc1)NC(=O)[C@H](CC(C)C)NC(=O)[C@H](CC(C)C)NC(=O)[C@@H](N)CCCNC(=N)N)C(=O)N[C@@H](CCCNC(=N)N)C(=O)N[C@@H](CCCNC(=N)N)C(=O)N[C@@H](CC(C)C)C(=O)N[C@@H](CCCCN)C(=O)N[C@@H](CCCNC(=N)N)C(=O)O` [EC5, RLLFRKIRRLKR] (H-RLLFRKIRRLKR-OH; N-terminus and C-terminus assumed) was tested, and the MIC (E. coli) was 8 µg/mL (≈ 4.83 µM), the “Minimum Bactericidal Concentration (MBC)” value (E. coli) was 8 µg/mL and the MIC (K pneumoniae) was 64 to 128 µg/mL. For the same compound, the MIC (P. aeruginosa) was 16 to 32 µg/mL, the “Minimum Bactericidal Concentration (MBC)” value (P. aeruginosa) was 8 µg/mL and the MIC (P. aeruginosa; P. aeruginosa ATCC 27853) was 8 µg/mL (≈ 4.83 µM). For the same compound, the MIC (P. aeruginosa; P. aeruginosa, strain not named) was 8 µg/mL (≈ 4.83 µM) and the “release of diSC3-5 from S. aureus” value (S. aureus) was “no trace of release”.
